Assays:
caspase-3 = experiment: Selectivity of probes: caspase-3; type: biochemical, human; conditions: caspase-3 1 μg/mL, 37 °C, 2 h, λex 510 nm, λem 585 nm
From the text: (§1) The resin used for SPPS was purchased from GL Biochem (Shanghai, China). Lipopolysaccharide (LPS, L2630), Nigericin and ATP (11140965001) were purchased from Merck (Shanghai, China) and Invitrogen (Shanghai, China), respectively. Cell culture plates were sourced from Wuxi NEST Biotechnology. Recombinant human caspase-1, caspase-3, caspase-4, and caspase-8 were obtained from Abcam and MCE (Shanghai, China). Anti-cleaved caspase-1 antibody, anti-GAPDH antibody, and goat anti-Rabbit/anti-mouse lgG/HRP were purchased from CST (USA) and Beyotime […]
(§2) (Shanghai, China). […]
Medical College (ethical approval number ZJCLA-IACUC-20011003). […]
To investigate the sensitivity of the probes for caspase-1, varying concentration of caspase-1 (0, 0.2, 0.4, 0.6, 0.8, 1.0, 1.25, 1.5, 1.75, 2, 2.5, 3 U/mL) were incubated with FPy1 (5 μM), YPy1 (5 μM) and WPy1 (5 μM) respectively in caspase-1 assay buffer (50 mM HEPES, 50 mM NaCl, 0.1 % chaps, 5 % glycerol, 10 mM DTT, 10 mM EDTA) at 37 °C for 2 hours. Fluorescence spectra were recorded using Hitachi F-2700 spectrophotometer with an excitation at 510 nm (Photomultiplier voltage 700 V; Slit widths ex: 10 nm and em =5.0 nm). […] The limit of detection (LoD) was calculated from 3σ/k, in which σ represents the standard deviation of 15 blank measurements. […]
10 nm and em =5.0 nm). The fluorescence intensity of FPy1, YPy1 and WPy1 at 585 nm were plotted separately against […]

caspase-8 = experiment: Selectivity of probes: caspase-8; type: biochemical, human; conditions: caspase-8 1 μg/mL, 37 °C, 2 h, λex 510 nm, λem 585 nm
From the text: as §1, §2
Medical College (ethical approval number ZJCLA-IACUC-20011003).
(also on this page, place not known: Wang,*f, Wang*abg Supplementary Information (SI) for Chemical Science. This journal is © The Royal Society of Chemistry 2025)
(1 picture or pasted object on this page, not shown here) […]
mixture was stirred for 3 h. […]
To investigate the sensitivity of the probes for caspase-1, varying concentration of caspase-1 (0, 0.2, 0.4, 0.6, 0.8, 1.0, 1.25, 1.5, 1.75, 2, 2.5, 3 U/mL) were incubated with FPy1 (5 μM), YPy1 (5 μM) and WPy1 (5 μM) respectively in caspase-1 assay buffer (50 mM HEPES, 50 mM NaCl, 0.1 % chaps, 5 % glycerol, 10 mM DTT, 10 mM EDTA) at 37 °C for 2 hours. Fluorescence spectra were recorded using Hitachi F-2700 spectrophotometer with an excitation at 510 nm (Photomultiplier voltage 700 V; Slit widths ex: 10 nm and em =5.0 nm). The fluorescence intensity of FPy1, YPy1 and WPy1 at 585 nm were plotted against the concentration of caspase-1, and a linear regression fitted from the corresponding concentration of caspase-1, and linear regression was applied to determine the slope k. The limit of detection (LoD) was calculated from 3σ/k, in which σ represents the standard deviation of 15 blank measurements. […]
The fluorescence intensity at 585 nm was measured on a Tecan Infinite M1000 Multi-function microplate reader (λex = 510 nm) at 37 °C every 2 minutes. The K M value of probes was determined from the Lineweaver-Burk plot. […]

Substance	fluorescence response to caspase-3 (caspase-3)	fluorescence response to caspase-8 (caspase-8)
–FLTDG– [FPy1, RhoB donor, hNR quencher]	almost no response	almost no response
–YVADG– [YPy1, caspase-1-responsive FRET probe with recognition peptide –YVADG–; RhoB donor, hNR quencher]	almost no response	almost no response

Source: PMC12598616, “Design and optimization of caspase-1-responsive fluorescent probes for pyroptosis imaging and anti-pyroptosis drug screening” (Chemical Science, 2025)
